Test results reported in patent publication US20220304996A1, “REBAMIPIDE FOR USE IN PROPHYLAXIS AND TREATMENT OF CELIAC DISEASE” (SQUARE POWER LTD., priority 2019, published 2022).

Assays:
Assay type in all cases: in vivo, human
celiac disease [1] = assay: Elimination-provocation (gluten challenge) test: Gastrointestinal Symptom Rating Scale (GSRS); details: for GSRS (mean total score): rebamipide 100 mg three times a day
Excerpt: To study the effect of rebamipide on the celiac disease, a gluten challenge test was employed. Adult patients admitted into the test were stabilized on a gluten-free diet (GFD) leading to disappearance of the disease symptoms for at least 12 months. All participants were previously diagnosed by a physician for the celiac disease using upper endoscopy and duodenal biopsy. The gluten-free diet adherence was confirmed by high villous height/crypt depth ratio (Vh/Cd>2-3) and decline in anti-tTG antibody levels (less than 10 U/mL) after the exclusion of gluten from the diet.
Patients were divided into two groups taking either rebamipide 100 mg three times a day or placebo just before each major meal. Both groups continued the gluten-free diet. The gluten challenge test was carried out three month (day 90) after the start of the treatment. Patients were given one slice of white bread comprising about 2.7 g of wheat gluten every day for the period of 6 weeks but otherwise maintained their usual gluten-free diet. Both groups continued receiving either rebamipide or placebo treatment.
CD symptoms were weekly evaluated by the Gastrointestinal Symptom Rating Scale (GSRS) questionnaire, an instrument that is widely used in research on celiac disease and other gastrointestinal disorders (Svedlund J, Sjodin I, Dotevall G. GSRS—a clinical rating scale for gastrointestinal symptoms in patients with irritable bowel syndrome and peptic ulcer disease. Dig Dis Sci 1988; 33:129-134). It consists of 15 questions that are grouped into five domains (diarrhea, abdominal pain, indigestion, constipation, and reflux), which are combined into a total score calculated as a mean of all 15 questions. The scoring is based on a Likert scale from 1 to 7 points, where 1 point indicates minimal gastrointestinal symptoms and 7 points the most severe symptoms.

intestinal permeability = assay: Elimination-provocation (gluten challenge) test: urinary lactulose/mannitol (La/Ma) fractional excretion ratio; details: for La/Ma (urinary lactulose/mannitol fractional excretion ratio): rebamipide 100 mg three times a day
Excerpt: To study the effect of rebamipide on the celiac disease, a gluten challenge test was employed. Adult patients admitted into the test were stabilized on a gluten-free diet (GFD) leading to disappearance of the disease symptoms for at least 12 months. All participants were previously diagnosed by a physician for the celiac disease using upper endoscopy and duodenal biopsy. The gluten-free diet adherence was confirmed by high villous height/crypt depth ratio (Vh/Cd>2-3) and decline in anti-tTG antibody levels (less than 10 U/mL) after the exclusion of gluten from the diet. Patients were divided into two groups taking either rebamipide 100 mg three times a day or placebo just before each major meal. Both groups continued the gluten-free diet. The gluten challenge test was carried out three month (day 90) after the start of the treatment. Patients were given one slice of white bread comprising about 2.7 g of wheat gluten every day for the period of 6 weeks but otherwise maintained their usual gluten-free diet. Both groups continued receiving either rebamipide or placebo treatment. The intestinal permeability was measured using the standard urinary lactulose/mannitol (La/Ma) fractional excretion ratio at the beginning of the lest, before and after 6-week challenge. The La/Ma test is based on a different absorption of non-metabolized sugars. In the healthy intestine, monosaccharides (e.g. mannitol) are passively absorbed through the intestinal mucosa, while larger disaccharide molecules (e.g. lactulose) are normally almost not absorbed. On the contrary, patients with the celiac disease have a consistent increase in the absorption of lactulose (via the paracellular route) due to increased permeability of the intestine and a reduction in the absorption of mannitol (via the transcellular route) due to a reduction in surface area as a result of villous atrophy, resulting in an increase in the La/Ma ratio.

celiac disease [2] = assay: Elimination-provocation (gluten challenge) test: duodenal biopsy, villous height to crypt depth ratio; details: for Vh/Cd (villous height to crypt depth ratio): duodenal biopsy
Excerpt: (§1) To study the effect of rebamipide on the celiac disease, a gluten challenge test was employed. Adult patients admitted into the test were stabilized on a gluten-free diet (GFD) leading to disappearance of the disease symptoms for at least 12 months. All participants were previously diagnosed by a physician for the celiac disease using upper endoscopy and duodenal biopsy. The gluten-free diet adherence was confirmed by high villous height/crypt depth ratio (Vh/Cd>2-3) and decline in anti-tTG antibody levels (less than 10 U/mL) after the exclusion of gluten from the diet. Patients were divided into two groups taking either rebamipide 100 mg three times a day or placebo just before each major meal. Both groups continued the gluten-free diet. The gluten challenge test was carried out three month (day 90) after the start of the treatment. Patients were given one slice of white bread comprising about 2.7 g of wheat gluten every day for the period of 6 weeks but otherwise maintained their usual gluten-free diet. Both groups continued receiving either rebamipide or placebo treatment. Duodenal biopsy was performed at the beginning (day 0) and at the end (day 132) of the study period. Villous height to crypt depth ratio (Vh/Cd) was determined by measuring the mean height/mean depth of adjacent villi/crypts by a pathologist. The ratio of <2 is regarded as indicative of villous atrophy and crypt hyperplasia.

anti-tTG IgA antibody = assay: Elimination-provocation (gluten challenge) test: serum anti-tTG IgA antibody ELISA
Excerpt: as §1, with “Serum mean anti-tTG IgA antibody levels were” for “Duodenal biopsy was performed at the beginning (day 0) and at the end (day 132) of the study period. Villous height to crypt depth ratio (Vh/Cd) was”, “an enzyme-linked immunosorbent assay (ELISA) and” for “measuring”, “difference at baseline” for “mean height/mean depth of adjacent villi/crypts by a pathologist. The ratio of <2 is regarded as indicative of villous atrophy”, “after 6-week challenge was compared.” for “crypt hyperplasia.”

[3] = day 132, after 6-week gluten challenge, rebamipide 100 mg three times a day

O=C(NC(Cc1cc(=O)[nH]c2ccccc12)C(=O)O)c1ccc(Cl)cc1 (stereo not drawn) [Rebamipide, 2-[(4-chlorobenzoyl)amino]-3-(2-oxo-1H-quinolin-4-yl)propanoic acid]
difference in mean GSRS scores, rebamipide lower than placebo (celiac disease [1]; at the end of the study (day 132)): 0.6 units
GSRS (mean total score) (celiac disease [1]; day 0 (baseline), adult celiac patients on gluten-free diet): 2.0
GSRS (mean total score) (celiac disease [1]; day 90, after three month pretreatment, before gluten challenge): 1.7
GSRS (mean total score) (celiac disease [1]; day 132, after 6-week gluten challenge (about 2.7 g wheat gluten every day)): 1.8
La/Ma ratio versus baseline (intestinal permeability; at the end of the gluten challenge): remained near the baseline
La/Ma (urinary lactulose/mannitol fractional excretion ratio) (intestinal permeability; day 0 (baseline)): 0.057
La/Ma (urinary lactulose/mannitol fractional excretion ratio) (intestinal permeability; day 90, before gluten challenge): 0.038
La/Ma (urinary lactulose/mannitol fractional excretion ratio) (intestinal permeability; day 132, after 6-week gluten challenge): 0.048
change from baseline to post treatment in villus height to crypt depth ratio (celiac disease [2]; after 6 weeks of daily gluten intake): didn't exhibit negative changes
Vh/Cd (villous height to crypt depth ratio) (celiac disease [2]; day 0 (baseline)): 2.9
Vh/Cd (villous height to crypt depth ratio) (celiac disease [2]; [3]): 3.1
mean anti-tTG IgA antibody titers (anti-tTG IgA antibody; after the gluten challenge): < 10 U/ml
anti-tTG IgA (serum mean antibody level) (anti-tTG IgA antibody; day 0 (baseline)): 3.9 U/ml
anti-tTG IgA (serum mean antibody level) (anti-tTG IgA antibody; day 90, before gluten challenge, rebamipide 100 mg three times a day): 4.3 U/ml
anti-tTG IgA (serum mean antibody level) (anti-tTG IgA antibody; [3]): 7.8 U/ml
